According to US20230354703A1, “ORGANIC COMPOUND AND LIGHT-EMITTING DEVICE” (SEMICONDUCTOR ENERGY LABORATORY CO., LTD., priority 2022, published 2023):

Experiments:
[1] = statement in words, background/description; cited from earlier work
[2] = water-solubility examined by calculation: polarization term δp of the solubility parameter (classical molecular dynamics, Desmond/OPLS2005); details: from the difference between the calculated δp and the δp of water (16.0); larger difference = lower solubility
Description: Then, the water-solubility of 2,9hpp2Phen was examined by calculation and the results are shown.
Desmond was used as software for the classical molecular dynamics calculation, and OPLS2005 was used for the force field. The calculation was performed using a high performance computer (Apollo 6500 manufactured by Hewlett Packard Enterprise Development).
A standard cell containing approximately 32 molecules is used a calculation model. […] After that, the structures are moved and rotated at random to move the molecules by Monte Carlo simulated annealing using OPLS2005 for the force field. Furthermore, the molecules are moved toward the center of the standard cell such that the density thereof is maximized; thus, the initial arrangement is obtained.
As a basis function, 6-31G** was used, and as a functional, B3LYP-D3 was used. […]
The aforementioned initial arrangement is subjected to Brownian motion simulation and then defined in an NVT ensemble; subsequently, calculation in an NPT ensemble is performed for an enough relaxation time (30 ns) under the conditions of 1 atm and 300 K with respect to time steps that reproduce molecular vibration (2 fs), so that an amorphous solid is calculated. […]
The actually measured value δp corresponding to the polarization term for the water-solubility parameter is disclosed as 16.0 in Japanese Published Patent Application No. 2017-173056, for example. […]

solubility in water compared with hpp2Py [2]	SMILES	solubility in water [1]
–	c1cc(N2CCCN3CCCN=C32)nc(N2CCCN3CCCN=C32)c1 [hpp2Py, 1,1′-pyridine-2,6-diyl-bis(1,3,4,6,7,8-hexahydro-2H-pyrimido[1,2-a]pyrimidine)]	highly soluble in water
less soluble in water than hpp2Py	c1cc2ccc3ccc(N4CCCN5CCCN=C54)nc3c2nc1N1CCCN2CCCN=C21 [2,9hpp2Phen, 2,9-bis(1,3,4,6,7,8-hexahydro-2H-pyrimido[1,2-a]pyrimidin-1-yl)-1,10-phenanthroline]	–
less soluble in water than hpp2Py	c1cc(N2CCCN3CCCN=C32)c2ccc3c(N4CCCN5CCCN=C54)ccnc3c2n1 [4,7hpp2Phen, 4,7-bis(1,3,4,6,7,8-hexahydro-2H-pyrimido[1,2-a]pyrimidin-1-yl)-1,10-phenanthroline]	–
